*: point of attachment. NHNH2 = NN*
Legend:
Type in all cases: cell-based
A549 cells = assay: EGFP mRNA delivery, robotic library screening, A549
Description: (§1) Cells were seeded in a 96 well plate the day before the experiment at a concentration of 50,000 cell/mL (100 μL/w) in DMEM+10% FBS+1% Gln-Abt. For robotic library screening, the delivery of EGFP-mRNA (from TriLink, fully substituted with 5-methoxyuridine, capped and polyadenylated; TriLink, CleanCap® EGFP mRNA (5moU), ref. L-7201) in six different cell lines was performed. Amphiphilic molecule stock solutions were prepared in DMSO as described above and diluted in DMEM to afford a range of concentrations. The solutions of EGFP-mRNA/amphiphilic molecule complexes were freshly prepared prior to the transfection experiments. 35 μL of the corresponding amphiphile were added to 10 μL of a solution of EGFP-mRNA at 10 ng/μL in DMEM. The mixture was shaken for 30 min at room temperature before the addition to the cells. The cell medium was aspirated, and cells were washed with PBS twice. Cells were covered with 39 μL of DMEM and 11 μL of the complex's solution were added to the cells and incubated for 4 h (final concentration of peptide=2.5, 5 and 10 μM; final concentration of EGFP-mRNA=25 ng/well). After the incubation, the medium was replaced by 100 μL of fresh DMEM supplemented with 10% FBS. The total EGFP fluorescence was quantified after 72 h in a well plate reader. Amphiphile transfection efficiency was compared and normalized to Lipofectamine® MessengerMax efficiency (value of 1 in Tables 1-5 and 7; double underlined numbers). All experiments were done in triplicate.
(§2) Tables 1-7: RLuc (pDNA) or EGFP (mRNA) expression levels were normalized to Lipofectamine reagents (value=1) and expressed as fold-times signal increase. In the case of siRNA, the siRNA treated cells fluorescence was compared with siMOCK control fluorescence, while Cas9-RNP mediated knockout was measured against the fluorescence of untreated cells. In both siRNA and Cas9-RNP, values are expressed as % fluorescence reduction. Amphiphile concentration was 5 μM in all cases. All experiments were performed in triplicate.
(§3) Tables 14-19 show the mean (triplicates) fluorescence intensity measured after the transfection of EGFP mRNA by different amphiphiles at different concentrations in a variety of cell lines. Background fluorescence values, accounted by untreated control cells, were subtracted for processing.

HCT116 cells = assay: RLuc pDNA delivery, robotic library screening, HCT116
[1] = system: A549 cells expressing EGFP; assay: Cas9-RNP delivery against EGFP (gene editing, plate reader), A549; conditions: A549 cells
Description: To generate an EGFP expressing HeLa cell line, HeLa cells were transfected with EGFP pDNA (pEGFP-C1, Clontech) and stable transfectants were selected with 400 μg/mL of G-418 (Millipore). Green clones were selected by epifluorescence microscopy and tested for EGFP expression stability through several passages. […] All other EGFP-expressing cell lines were obtained in a similar way from parent non-EGFP-expressing cell lines.
Cells expressing EGFP were seeded in a 96 well plate the day before the experiment at a concentration of 50,000 cell/mL (100 μL/w) in DMEM+10% FBS+1% Gln-Abt. For robotic library screening, the delivery of Cas9-RNP against EGFP (RNP designed to knock-out the gene encoding for the enhanced green fluorescent protein (EGFP)) was performed. For RNP assembly, 9.2 μL of crRNA and 9.2 μL of tracrRNA were mixed in 211.6 μL of Nuclease-Free Duplex Buffer (IDT), incubated for 5 min at 95° C. and slowly cooled at rt (see I. Lostalé-Seijo, et al. Peptide/Cas9 nanostructures for ribonucleoprotein cell membrane transport and gene edition, Chem. Sci., 2017). Cas9 protein was dissolved in DMEM at a final concentration of 4 μM and equal volumes of the RNA complex and Cas9 were mixed and incubated for 5 min at rt. 75 μL of the corresponding amphiphile concentrations were added to 5 μL of RNP at 2 μM. The mixture was shaken for 30 min at room temperature before the addition to the cells. The cell medium was aspirated, and cells were washed twice with PBS. Cells were covered with 30 μL of DMEM and 20 μL of the RNP/amphiphile complexes were added to the cells (final peptide concentrations=2.5, 5 and 10 μM; final Cas9-RNP concentration=50 nM) and incubated for 4 h. After the incubation, the medium was replaced by 100 μL of fresh DMEM supplemented with 10% FBS. The total EGFP fluorescence was quantified after 72 h in a plate reader (FIG. 2, Table 1 (right) and Table 6). All experiments were done in triplicate.
as §2
Tables 26-31 show the mean (triplicates) percentage of gene editing, accounted by GFP fluorescence intensity decrease (% of reduction), measured after the transfection of Cas9-RNP by different amphiphiles at different concentrations in a variety of cell lines. Background values, accounted by untreated control cells, were subtracted for processing.

Hela cells = assay: EGFP mRNA delivery, robotic library screening, HeLa
Description: as §1, §2, §3

## Ac-RK*LRRLLRK*-NH2 (Ac-RK(NHNH2)LRRLLRK(NHNH2)-NH2; not fully specified; printed as Ac-RK*LRRLLRK*-NH2; also: K*2,K*9: native or modified lysine (ε-amide to a linker)) [Peptide 9.2]
A549 cells; Myristoleyl, 5 μM
  mean fluorescence intensity (EGFP mRNA): 205
A549 cells; Myristoleyl, 10 μM
  mean fluorescence intensity (EGFP mRNA): −79
HCT116 cells; Dodecanal, 10 μM
  mean luminescent intensity (RLuc pDNA): 819 RLU
HCT116 cells; Dodecanal, 15 μM
  mean luminescent intensity (RLuc pDNA): 1099 RLU
HCT116 cells; Myristoleyl, 5 μM
  mean luminescent intensity (RLuc pDNA): −544 RLU
HCT116 cells; Myristoleyl, 10 μM
  mean luminescent intensity (RLuc pDNA): −623 RLU
HCT116 cells; Myristoleyl, 15 μM
  mean luminescent intensity (RLuc pDNA): −617 RLU
[1]; Dodecanal, 10 μM
  percentage of gene editing, GFP fluorescence intensity decrease (% of reduction): −22%
[1]; Dodecanal, 15 μM
  percentage of gene editing, GFP fluorescence intensity decrease (% of reduction): 4%
[1]; Myristoleyl, 5 μM
  percentage of gene editing, GFP fluorescence intensity decrease (% of reduction): 9%
[1]; Myristoleyl, 10 μM
  percentage of gene editing, GFP fluorescence intensity decrease (% of reduction): 7%
[1]; Myristoleyl, 15 μM
  percentage of gene editing, GFP fluorescence intensity decrease (% of reduction): 14%
Hela cells; HeLa, Dodecanal, 2.5 μM
  mean fluorescence intensity (EGFP mRNA): 933
Hela cells; HeLa, Dodecanal, 5 μM
  mean fluorescence intensity (EGFP mRNA): 390
Hela cells; HeLa, Myristoleyl, 2.5 μM
  mean fluorescence intensity (EGFP mRNA): 1738
Hela cells; Hela, Myristoleyl, 5 μM
  mean fluorescence intensity (EGFP mRNA): 585

## Ac-RK*LRRK*L-NH2 (Ac-RK(NHNH2)LRRK(NHNH2)L-NH2; not fully specified; printed as Ac-RK*LRRK*L-NH2; also: K*2,K*6: native or modified lysine (ε-amide to a linker)) [Peptide 7.2]
A549 cells; Dodecanal, 2.5 μM
  mean fluorescence intensity (EGFP mRNA): 428
A549 cells; Dodecanal, 5 μM
  mean fluorescence intensity (EGFP mRNA): −205
A549 cells; Dodecanal, 10 μM
  mean fluorescence intensity (EGFP mRNA): −3
A549 cells; Myristoleyl, 2.5 μM
  mean fluorescence intensity (EGFP mRNA): 1101
A549 cells; Myristoleyl, 5 μM
  mean fluorescence intensity (EGFP mRNA): 231
A549 cells; Myristoleyl, 10 μM
  mean fluorescence intensity (EGFP mRNA): 123
HCT116 cells; Dodecanal, 5 μM
  mean luminescent intensity (RLuc pDNA): 911 RLU
HCT116 cells; Dodecanal, 10 μM
  mean luminescent intensity (RLuc pDNA): 729 RLU
HCT116 cells; Dodecanal, 15 μM
  mean luminescent intensity (RLuc pDNA): 684 RLU
HCT116 cells; Myristoleyl, 5 μM
  mean luminescent intensity (RLuc pDNA): −526 RLU
HCT116 cells; Myristoleyl, 10 μM
  mean luminescent intensity (RLuc pDNA): −505 RLU
HCT116 cells; Myristoleyl, 15 μM
  mean luminescent intensity (RLuc pDNA): −526 RLU
[1]; Dodecanal, 10 μM
  percentage of gene editing, GFP fluorescence intensity decrease (% of reduction): −3%
[1]; Dodecanal, 15 μM
  percentage of gene editing, GFP fluorescence intensity decrease (% of reduction): −13%
[1]; Myristoleyl, 5 μM
  percentage of gene editing, GFP fluorescence intensity decrease (% of reduction): 3%
[1]; Myristoleyl, 10 μM
  percentage of gene editing, GFP fluorescence intensity decrease (% of reduction): 7%
[1]; Myristoleyl, 15 μM
  percentage of gene editing, GFP fluorescence intensity decrease (% of reduction): 7%
Hela cells; HeLa, Dodecanal, 2.5 μM
  mean fluorescence intensity (EGFP mRNA): 268
Hela cells; HeLa, Dodecanal, 5 μM
  mean fluorescence intensity (EGFP mRNA): 341
Hela cells; HeLa, Myristoleyl, 2.5 μM
  mean fluorescence intensity (EGFP mRNA): 5194
Hela cells; Hela, Dodecanal, 10 μM
  mean fluorescence intensity (EGFP mRNA): 288
Hela cells; Hela, Myristoleyl, 5 μM
  mean fluorescence intensity (EGFP mRNA): 654
Hela cells; Hela, Myristoleyl, 10 μM
  mean fluorescence intensity (EGFP mRNA): 358
